These results are taken from patent publication US20040087512A1, “In-situ formation of CLA” (priority 1998, published 2004).

Assay [1] has as its system C57/B1/6J mice. Put plainly: Example 6: milk fat percentage of mice fed oleic acid isomer diets (creamatocrit). The assay is classed as in vivo. Conditions: for Milk fat on day 10 versus day 6 of lactation: isomer replaces about 25% of dietary fat, four days. The source says:
(§1) C57/B1/6J mice fed a control diet (10 wt % fat) were switched to one of four isomer diets at day 6 of lactation after milk collection. Approximately 25% of the dietary fat (5 caloric %) during the treatment period was replaced with one of four specific isomers of oleic acid, either cis-9; cis-11; trans-9 or trams-11, other diet components were identical. The mice consumed these diets ad libitum for four days and were milked again on day 10 of lactation. Milk and fecal fatty acid composition was analyzed as fatty acid methyl esters by GC. Specific isomers were identified by relative retention times. Milk fat percentage was determined by the creamatocrit method and differences between day 6 and day 10 fat percentages were evaluated by a paired t-test.

Assay [2] has as its system C57/B1/6J mice. The assay can be described thus: Example 6: milk and fecal fatty acid composition of mice fed oleic acid isomer diets (GC of FAME). The assay is classed as in vivo. The following applies: day 10, fed the isomer diet.
Text: as §1

A further assay concerns cows. Put plainly: Milk fat levels in cows ingesting C18 trans 11 fats. Conditions: in vivo.

On to `CCCCCCCC/C=C\CCCCCCCC(=O)O` [cis-9], for which the “Milk fat on day 10 versus day 6 of lactation” value in the assay with C57/B1/6J mice [1] is listed as “identical fat values”.

In the case of `CCCCCC/C=C\CCCCCCCCCC(=O)O` [cis-11], the “Milk fat on day 10 versus day 6 of lactation” value in the assay with C57/B1/6J mice [1] is “numerically lower”. In addition, the “Test isomer in milk” value in the assay with C57/B1/6J mice [2] is 10 % of the fat.

With `CCCCCCCC/C=C/CCCCCCCC(=O)O` [trans-9], the “Milk fat on day 10 versus day 6 of lactation” value in the assay with C57/B1/6J mice [1] is reported as “statistically lower”. The “Test isomer in milk” value with C57/B1/6J mice [2] is on record as 5.8 % of the fat.

Turning to `CCCCCC/C=C/CCCCCCCCCC(=O)O` [trans-11, trans vaccinic acid], the “Milk fat on day 10 versus day 6 of lactation” value with C57/B1/6J mice [1] is reported as “numerically lower”. Moreover, in the assay with C57/B1/6J mice [1] (mouse, in vivo), the “Effect of ingestion on milk fat in the lactation products of mammals” value is “does not reduce milk fat”. Further, the “Test isomer in milk” value with C57/B1/6J mice [2] was 3 % of the fat. Further, the “Effect of ingestion on milk fat levels in cows” value in the assay on cows was “do not reduce milk fat levels”.
